Test results from US20100261739A1, “Method of Treating Non-Small Cell Lung Cancer” (Myriad Pharmaceuticals, Inc., priority 2007, published 2010).
Where a name gives a salt, the structure may show the parent alone.

System: Subjects with Refractory Solid Tumors
Experiment: Phase I clinical trial, open-label, dose-escalating, multiple-dose, weekly intravenous administration
Assay type: in vivo, human
Method: An open-label, dose-escalating, multiple-dose study to define the safety, tolerability and phamacokinetics of weekly intravenous administration of (4-Methoxy-phenyl)-methyl-(2-methyl-quinazolin-4-yl)-amine hydrochloride was performed. A dosing schedule (each 4 week cycle) was performed for (4-Methoxy-phenyl)-methyl-(2-methyl-quinazolin-4-yl)-amine hydrochloride weekly for 3 weeks with no infusion on the fourth week of each cycle. Subjects with refractory solid tumors were enrolled. During Cycle 1, subjects were hospitalized during each infusion of (4-Methoxy-phenyl)-methyl-(2-methyl-quinazolin-4-yl)-amine hydrochloride and remained for observation and safety evaluation for approximately 24 hours following the end of the infusion. All subject had continuous telemetry for 2 hours prior to infusion, for 1-2 hour infusion and for 3 hours after the end of the infusion. Any clinically significant electrocardiographic (ECG) wave form abnormality was recorded and prolongation of the monitoring period extended at the discretion of the principal investigator.
Electrocardiograms were obtrained prior to starting the infusion and within 30 minutes of the end of infusion for each infusino of the first cycle. Electrocardiograms on Day 1 were obtained in triplicate 5 minutes apart.
Neurocognitive assessments were made by administration of the Mini-Mental State Examination (MMSE), the Hopkins Verbal Learning and timed Grooved Pegboard tests before administration of the intravenous infusion and approximately 24 hours after the infusion at each weekly administration of the first cycle.
On days 1, 8, and 15 of each cycle, vital signs were obtained prior to the first dose, at 15, 30, and 60 minutes after the initiation of the infusion, and at 0.5, 1, 1.5, 2, and 4 hours after the end of the intravenous infusion. Vital signs at all time points beyond the start of the intravenous infusion included heart rate, blood pressure and respirations. Temperature was measured at the end of the infusion and 4 hours later.
Individual subjects were allowed to continue on repeated weekly ×3 administrations every 28 days with no dose increase provided there was no unacceptable toxicity or disease progression.
Tumor response was evaluated by response evaluation criteria in solid tumors
(RECIST) criteria. To prevent sever hypersensitivity reactions due to Cremophor® EL, subjects were premedicated with oral dexamethasone (20 mg) administered approximately 12 and 6 hours before the intravenous infusion with (4-Methoxy-phenyl)-methyl-(2-methyl-quinazolin-4-yl)-amine hydrochloride, diphenhydramine (50 mg) or its equivalent administered intravenously 30-60 minutes before (4-Methoxy-phenyl)-methyl-(2-methyl-quinazolin-4-yl)-amine hydrochloride, and cimetidine (300 mg) or ranitidine (50 mg) administered intravenously 30-60 minutes before (4-Methoxy-phenyl)-methyl-(2-methyl-quinazolin-4-yl)-amine hydrochloride.

[1] = at the administered doses (0.3-4.5 mg/m^2), weekly i.v.

COc1ccc(N(C)c2nc(C)nc3ccccc23)cc1 [(4-Methoxy-phenyl)-methyl-(2-methyl-quinazolin-4-yl)-amine hydrochloride]
cytotoxicity peripherally [1]: no evidence from the results of the clinical trials of cytotoxicity peripherally | effect on laboratory parameters (neutrophils, platelets, hemoglobin) [1]: no apparent effect | safety and tolerability (human subjects at selected dosages, summary of Phase 1 studies): safe and well tolerated | disease progression (tumor response by RECIST criteria) (one patient in Cohort 10 (3.3 mg/m^2) with NSCLC that had metastasized to the CNS, weekly i.v. for 3 weeks of each 4 week cycle): not shown to have disease progression | dose limiting toxicity (particularly in Cohorts 8 and 9 (3.9 and 4.5 mg/m^2)): vascular in nature, manifested by an acute coronary syndrome | intratumor bleeding (weekly i.v., human subjects): incidences of intratumor bleeding | optimal dosage derived from the trials (weekly i.v., hydrochloride salt basis): ≤ 3.3 mg/m^2 | safety and tolerability (within dosage range 3.3 mg/m^2 or lower): safe and tolerated
